Measurements taken from patent US6214816A, “Heterocyclic compounds” (Novo Nordisk A/S, priority 1998, dated 2001).
Structures can show the parent of a compound that is named as a salt.

Tested on: histamine induced paw oedema
Experiment: Histamine induced paw oedema
Type: in vivo, rat (male Sprague-Dawley)
Details: ip, intraperitoneally 15 minutes before the anaesthetics, paw swelling 20 minutes after histamine, rat
Experimental: Compounds of formula I may be used to treat all painful, hyperalgesic and/or inflammatory conditions in which C-fibres play a pathophysiological role by eliciting neurogenic pain or inflammation, i.e.: The rat histamine paw oedema test was performed essentially as described by Amann et al. (Europ. J. Pharmacol. 279, 227-231, 1995). In brief 250-300 g male Sprague-Dawley rats were anaesthetized with pentobarbital sodium, and placed on a 32 degree Celsius heated table. Ten minutes later histamine (50 micoliter, 3 mg/ml) was injected in the right hind paw and 20 minutes hereafter the paw swelling was determined by water plethysmography (Ugo Basile). Test compounds were administered intraperitoneally at 15 minutes before the anaesthetics.

Compound: O=C(O)CCN1CCC(CN2c3ccccc3CCc3ccccc32)C1 (stereo not shown) [Example 1, 3-(3-(10,11-Dihydro-5H-dibenzo[b,f]azepin-5-ylmethyl)-pyrrolidin-1-yl)-propionic acid hydrochloride]
- inhibition at 1 mg/kg: 56%
